IC50 data for 26 compounds are collected here from patent publication US20070082880A1 (priority 2005, published 2007).

Bounds are passed on as bounds.

For this assay, the target named is T1, human PKCθ full length enzyme (Homo sapiens, UniProt Q04759).
T1 construct: human PKCθ full length enzyme (Panvera Catalog No. P2996); purchased Panvera P2996
T1 sequence (Q04759 whole entry): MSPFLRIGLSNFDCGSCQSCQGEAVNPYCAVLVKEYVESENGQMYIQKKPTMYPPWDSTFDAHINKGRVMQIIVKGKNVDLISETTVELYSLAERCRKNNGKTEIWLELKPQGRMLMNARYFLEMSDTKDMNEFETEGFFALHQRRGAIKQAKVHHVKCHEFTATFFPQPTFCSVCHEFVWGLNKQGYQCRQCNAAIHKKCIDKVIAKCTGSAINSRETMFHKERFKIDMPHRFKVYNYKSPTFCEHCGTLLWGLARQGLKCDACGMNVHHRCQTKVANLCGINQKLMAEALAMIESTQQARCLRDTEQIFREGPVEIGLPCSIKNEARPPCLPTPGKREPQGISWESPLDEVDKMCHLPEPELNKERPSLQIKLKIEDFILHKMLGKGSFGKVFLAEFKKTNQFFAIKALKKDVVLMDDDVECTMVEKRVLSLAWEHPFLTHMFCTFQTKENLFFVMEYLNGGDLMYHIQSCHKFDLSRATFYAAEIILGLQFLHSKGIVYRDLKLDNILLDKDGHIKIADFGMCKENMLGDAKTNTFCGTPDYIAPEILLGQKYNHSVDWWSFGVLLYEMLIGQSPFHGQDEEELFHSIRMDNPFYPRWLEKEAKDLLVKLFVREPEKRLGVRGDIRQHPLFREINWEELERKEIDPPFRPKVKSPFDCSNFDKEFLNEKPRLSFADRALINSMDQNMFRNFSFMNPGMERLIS
The experiment in a line: PKCθ IMAP Assay. In kind it is biochemical. To be noted: average value when one or more samples were tested; ATP 6 uM, PKCθ 1 nM. A digest of the protocol:
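IMAP fluorescence polarization after 20 min with binding beads measured phosphorylation of 100 nM 5FAM-peptide. Reactions held 1 nM full-length human PKCθ, 6 uM ATP, 5% DMSO and DTT-containing buffer, 25 min at room temperature. Compounds tested as 2:1 serial dilutions; controls lacked ATP or enzyme.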
As for `Cc1c(Nc2c(C#N)cnc3sc(I)c(C)c23)ccc2[nH]ccc12` [Compound 318, 2-Iodo-3-methyl-4-[(4-methyl-1H-indol-5-yl)amino]thieno[2,3-b]pyridine-5-carbonitrile], it took 80 nM to reach half-maximal inhibition (IC50).

On to `Cc1ccc2[nH]ccc2c1Nc1c(C#N)cnc2sc(-c3ccccc3)cc12` [Compound 319, 4-[(5-methyl-1H-indol-4-yl)amino]-2-phenylthieno[2,3-b]pyridine-5-carbonitrilee], for which the IC50 – broadly, the concentration that inhibits the measured activity by half – is 1110 nM.

In turn, `CN(C)Cc1cccc(-c2cc3c(Nc4cnc5[nH]ccc5c4)c(C#N)cnc3s2)c1` [Compound 320, 2-{3-[(dimethylamino)methyl]phenyl}-4-(1H-pyrrolo[2,3-b]pyridin-5-ylamino)thieno[2,3-b]pyridine-5-carbonitrile] yielded an IC50 of 690 nM.

In turn, `CC(C)c1c(I)sc2ncc(C#N)c(Nc3ccc4[nH]ccc4c3)c12` [Compound 321, 4-(1H-indol-5-ylamino)-2-iodo-3-isopropylthieno[2,3-b]pyridine-5-carbonitrile] returned an IC50 of 345 nM.

Compound `N#Cc1cnc2sc(-c3ccccc3)cc2c1Nc1cnc2[nH]ccc2c1` [Compound 322, 2-phenyl-4-(1H-pyrrolo[2,3-b]pyridin-5-ylamino)thieno[2,3-b]pyridine-5-carbonitrile] gave an IC50 of 4670 nM.

In turn, `Cc1cc2[nH]ccc2cc1Nc1c(C#N)cnc2sc(-c3ccccc3)cc12` [Compound 323, 4-[(6-methyl-1H-indol-5-yl)amino]-2-phenylthieno[2,3-b]pyridine-5-carbonitrile] returned an IC50 of 87 nM.

As for `Cc1c(Nc2c(C#N)cnc3sc(I)c(C(C)C)c23)ccc2[nH]ccc12` [Compound 324, 2-iodo-3-isopropyl-4-[(4-methyl-1H-indol-5-yl)amino]thieno[2,3-b]pyridine-5-carbonitrile], the midpoint of inhibition, the IC50, lay at 65 nM.

The compound `Cc1c(Nc2c(C#N)cnc3scc(Br)c23)ccc2[nH]ccc12` [Compound 325, 3-bromo-4-[(4-methyl-1H-indol-5-yl)amino]thieno[2,3-b]pyridine-5-carbonitrile] returned an IC50 of 15 nM.

`CN(C)Cc1cccc(-c2cc3c(Nc4cccnc4)c(C#N)cnc3s2)c1` [Compound 326, 2-{3-[(dimethylamino)methyl]phenyl}-4-(pyridin-3-ylamino)thieno[2,3-b]pyridine-5-carbonitrile]: the IC50 was 31000 nM.

`CN(C)Cc1cccc(-c2cc3c(Nc4ccncc4)c(C#N)cnc3s2)c1` [Compound 327, 2-{3-[(dimethylamino)methyl]phenyl}-4-(pyridin-4-ylamino)thieno[2,3-b]pyridine-5-carbonitrile] registered an IC50 of 16400 nM.

In turn, `N#Cc1cnc2sc(-c3ccc4ccccc4c3)cc2c1Nc1ccc2[nH]ccc2c1` [Compound 328, 4-(1H-indol-5-ylamino)-2-(2-naphthyl)thieno[2,3-b]pyridine-5-carbonitrile] displayed an IC50 of 1380 nM.

In the case of `Cc1c(Nc2c(C#N)cnc3sc(-c4ccc(N5CCOCC5)nc4)cc23)ccc2[nH]ccc12` [Compound 329, 4-[(4-methyl-1H-indol-5-yl)amino]-2-(6-morpholin-4-ylpyridin-3-yl)thieno[2,3-b]pyridine-5-carbonitrile], the IC50 stood at 160 nM.

`Cc1c(Nc2c(C#N)cnc3sc(-c4cnc(N5CCOCC5)nc4)cc23)ccc2[nH]ccc12` [Compound 330, 4-[(4-methyl-1H-indol-5-yl)amino]-2-(2-morpholin-4-ylpyrimidin-5-yl)thieno[2,3-b]pyridine-5-carbonitrile] came in with an IC50 of 69 nM.

Regarding `Cc1c(Nc2c(C#N)cnc3sc(-c4cnc(N(C)C)nc4)cc23)ccc2[nH]ccc12` [Compound 331, 2-[2-(dimethylamino)pyrimidin-5-yl]-4-[(4-methyl-1H-indol-5-yl)amino]thieno[2,3-b]pyridine-5-carbonitrile], the IC50 is > 25000 nM.

`CCOc1ccccc1-c1cc2c(Nc3ccc4[nH]ccc4c3C)c(C#N)cnc2s1` [Compound 332, 2-(2-ethoxyphenyl)-4-[(4-methyl-1H-indol-5-yl)amino]thieno[2,3-b]pyridine-5-carbonitrile] gave an IC50 of 437 nM.

`COC(=O)Nc1ccc(-c2cc3c(Nc4ccc5[nH]ccc5c4C)c(C#N)cnc3s2)cc1` [Compound 333, methyl (4-{5-cyano-4-[(4-methyl-1H-indol-5-yl)amino]thieno[2,3-b]pyridin-2-yl}phenyl)carbamate] came in with an IC50 of 616 nM.

With `CCCCNC(=O)Nc1ccc(-c2cc3c(Nc4ccc5[nH]ccc5c4)c(C#N)cnc3s2)cc1` [Compound 334, N-butyl-N′-{4-[5-cyano-4-(1H-indol-5-ylamino)thieno[2,3-b]pyridin-2-yl]phenyl}urea], the IC50 was > 12500 nM.

As for `CN(C)CCNC(=O)c1cccc(-c2cc3c(Nc4ccc5[nH]ccc5c4)c(C#N)cnc3s2)c1` [Compound 335, 3-[5-cyano-4-(1H-indol-5-ylamino)thieno[2,3-b]pyridin-2-yl]-N-[2-(dimethylamino)ethyl]benzamide], the IC50 is 124 nM.

For `N#Cc1cnc2sc(-c3cscc3C=O)cc2c1Nc1ccc2[nH]ccc2c1` [Compound 336, 2-(4-formyl-3-thienyl)-4-(1H-indol-5-ylamino)thieno[2,3-b]pyridine-5-carbonitrile], the IC50 was determined as 51 nM.

`COc1ccc(-c2cc3c(Nc4ccc5[nH]ccc5c4)c(C#N)cnc3s2)cc1C=O` [Compound 337, 2-(3-formyl-4-methoxyphenyl)-4-(1H-indol-5-ylamino)thieno[2,3-b]pyridine-5-carbonitrile]: 136 nM corresponded to half-maximal inhibition (IC50).

`COc1ccc(C=O)cc1-c1cc2c(Nc3ccc4[nH]ccc4c3C)c(C#N)cnc2s1` [Compound 338, 2-(5-formyl-2-methoxyphenyl)-4-[(4-methyl-1H-indol-5-yl)amino]thieno[2,3-b]pyridine-5-carbonitrile] showed an IC50 of 14 nM.

Turning to `Cc1c(Nc2c(C#N)cnc3sc(-c4cccc(C(=O)NCCN(C)C)c4)cc23)ccc2[nH]ccc12` [Compound 339, 3-{5-cyano-4-[(4-methyl-1H-indol-5-yl)amino]thieno[2,3-b]pyridin-2-yl}-N-[2-(dimethylamino)ethyl]benzamide], the IC50 is 9 nM.

Take `CC(=O)c1cccc(-c2cc3c(Nc4ccc5[nH]ccc5c4C)c(C#N)cnc3s2)c1` [Compound 340, 2-(3-acetylphenyl)-4-[(4-methyl-1H-indol-5-yl)amino]thieno[2,3-b]pyridine-5-carbonitrile]: the IC50 turned out to be 26 nM.

`COC(=O)Nc1ccc(-c2cc3c(Nc4ccc5[nH]ccc5c4)c(C#N)cnc3s2)cc1` [Compound 342, methyl {4-[5-cyano-4-(1H-indol-5-ylamino)thieno[2,3-b]pyridin-2-yl]phenyl}carbamate] registered an IC50 of 470 nM.

As to `CNS(=O)(=O)c1cccc(-c2cc3c(Nc4ccc5[nH]ccc5c4C)c(C#N)cnc3s2)c1` [Compound 343, 3-{5-cyano-4-[(4-methyl-1H-indol-5-yl)amino]thieno[2,3-b]pyridin-2-yl}-N-methylbenzenesulfonamide], the IC50 came to 30 nM.

As for `CON(C)C(=O)c1cccc(-c2cc3c(Nc4ccc5[nH]ccc5c4)c(C#N)cnc3s2)c1` [Compound 344, 3-[5-cyano-4-(1H-indol-5-ylamino)thieno[2,3-b]pyridin-2-yl]-N-methoxy-N-methylbenzamide], the midpoint of inhibition, the IC50, lay at 818 nM.
